In PMC3277506, “Extra-Renal Elimination of Uric Acid via Intestinal Efflux Transporter BCRP/ABCG2” (PLoS ONE, 2012):
Read-outs that look alike come from different tables or passages of the source.

Columns and labels:
Caco-2 cells = test: Bidirectional transcellular transport of [14C]uric acid in Caco-2 cells; type: in vitro ADME, human; details: elacridar 2 µM, Ko143 1 µM, verapamil 100 µM, MK571 10 µM
Method: Caco-2 cells were obtained from the American Type Culture Collection (Rockville, MD). Caco-2 cells were cultured in Dulbecco's modified Eagle's medium (D-MEM) (Invitrogen, Carlsbad, CA) supplemented with 10% (v/v) fetal bovine serum (Invitrogen), 100 units/mL benzylpenicillin, 100 µg/mL streptomycin, 1% (v/v) MEM non-essential amino acid solution (Invitrogen) at 37°C under an atmosphere of 5% CO2 in air. For bidirectional transport studies, Caco-2 cells were cultured on Transwell filter membrane inserts (BD Falcon, surface area 0.9 cm^2 and pore size 3 µm) at a density of 6.4×10^4 cells/cm^2 for 21 days before use for each experiment. […] Inhibitor was added to only apical side. Transport of [^14C]uric acid was measured in two directions, namely apical (AP)-to-basal (BL) and BL-to-AP directions. An aliquot of transport buffer was obtained from the donor side at 5 min for measurement of initial concentration, and from the receiver side at 30, 60, 90 and 120 min. Transport studies were performed at 37°C and pH 7.4.
The apparent permeability (Papp, cm/sec) of [^14C]uric acid across the cell monolayer was calculated using the following equation: [drawing 4] where Q is the amount of [^14C]uric acid transported over time t. Cd is the initial concentration in the donor side and A is the surface area of membrane.

rBcrp [1] = biological target: T1, rBcrp (Rattus norvegicus, UniProt Q80W57); test: [14C]uric acid uptake by rBcrp-expressing membrane vesicles; type: biochemical; set-up: purchased GenoMembrane Inc. (Yokohama, Japan); host or cells: Sf9 cells; details: [14C]uric acid uptake by vesicles, inhibitor concentrations only in Fig. 2C
T1 sequence (Q80W57 1-657): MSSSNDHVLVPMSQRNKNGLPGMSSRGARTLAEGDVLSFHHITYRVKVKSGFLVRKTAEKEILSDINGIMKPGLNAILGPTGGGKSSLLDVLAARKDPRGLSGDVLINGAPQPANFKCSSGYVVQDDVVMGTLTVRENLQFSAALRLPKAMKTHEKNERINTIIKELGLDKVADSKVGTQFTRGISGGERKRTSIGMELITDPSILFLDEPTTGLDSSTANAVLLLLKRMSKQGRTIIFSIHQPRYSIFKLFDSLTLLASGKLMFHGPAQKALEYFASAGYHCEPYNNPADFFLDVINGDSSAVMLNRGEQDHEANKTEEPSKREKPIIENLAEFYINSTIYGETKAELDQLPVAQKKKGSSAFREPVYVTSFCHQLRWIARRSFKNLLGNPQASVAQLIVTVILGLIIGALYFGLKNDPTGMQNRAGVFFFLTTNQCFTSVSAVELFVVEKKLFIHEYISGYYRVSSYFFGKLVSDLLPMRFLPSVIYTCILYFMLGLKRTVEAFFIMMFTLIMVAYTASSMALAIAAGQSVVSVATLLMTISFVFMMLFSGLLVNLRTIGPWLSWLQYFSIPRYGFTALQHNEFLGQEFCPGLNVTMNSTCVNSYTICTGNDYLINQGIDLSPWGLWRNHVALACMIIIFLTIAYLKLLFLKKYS
Method: hBCRP/rBcrp, hMRP2/rMrp2, or hMDR1-expressing membrane vesicles prepared from Sf9 cells were purchased from GenoMembrane Inc. (Yokohama, Japan). Uptake experiments were conducted as described previously. Briefly, after a pre-incubation for 5 min at 37°C, membrane vesicles (50 µg protein/50 µL final reaction volume) were incubated for 5 min at 37°C in the presence of 4 mM ATP or AMP in assay buffer (1 M KCl, 1 M MgCl2, and 100 mM MOPS-Tris, pH 7.0) containing [^14C]uric acid (1 µCi/mL). The uptake reaction was terminated by adding 1 mL ice-cold washing buffer (1 M KCl, and 100 mM MOPS-Tris, pH 7.0) to the membrane solution, and the mixture was rapidly filtered through a nitrocellulose filter (0.45 µm pore size, Millipore, Bedford, MA). The filters were washed twice with 5 mL ice-cold washing buffer. The filters were dried and dissolved in Clearsol-I for quantitation of radioactivity.

rBcrp [2] = biological target: T1, rBcrp; test: Effect of elacridar on intestinal secretion of uric acid, in situ intestinal closed loop method, oxonate-treated rats; type: in vivo; details: for Intestinal secretory clearance of uric acid, % of that in elacridar-untreated rats: 10 µM elacridar (Fig. 1A); for Intestinal secretory clearance of uric acid in the presence of elacridar: 10 µM elacridar, oxonate-treated rats
Method: We evaluated intestinal secretion of endogenous uric acid according to the method described previously, with some modifications. Rats were anesthetized with 50% urethane and treated with oxonate by the same method as in the in vivo animal study described above. Intestinal closed loops were made at different segments: jejunum (10 cm), ileum (10 cm), and colon (3–5 cm). Phosphate-buffered solution (PB, 0.075 M NaH2PO4 - 0.075 M Na2HPO4, pH 6.5) or inhibitor-containing PB was injected into the intestinal loop. After 60 min, the remaining luminal content in each loop was washed out and collected for quantitation. Blood was obtained from the jugular vein at 1, 20, 40 and 60 min. Plasma was obtained by centrifugation and used for quantitation.
The following equation was used to calculate intestinal secretory clearance (µL/min/cm loop) and estimated total intestinal secretory clearance (CLintestine, estimated) (mL/min): [drawing 1] [drawing 2] [drawing 3] where A is the amount of uric acid secreted into the intestinal lumen of each loop for 60 min, L is the length of the intestine, and AUC is area under the plasma concentration-time curve.

[3] = cited from earlier work
[4] = substrate: O=c1[nH]c(=O)c2[nH]c(=O)[nH]c2[nH]1; test: [14C]uric acid uptake by rBcrp-expressing membrane vesicles; type: biochemical, rat; details: other: ATP-dependent uptake, maximum uric acid concentration 5 mM; pH 7.0; 37.0 °C

Molecule: COc1ccc2c3c([nH]c2c1)[C@H](CC(C)C)N1C(=O)[C@H](CCC(=O)OC(C)(C)C)NC(=O)[C@@H]1C3 [Ko143, reference compound]
- Effect on polarized transport of uric acid across Caco-2 cell monolayer (Caco-2 cells): significantly reduced
- Inhibition of rBcrp-mediated transport of uric acid (rBcrp [1]): strongly inhibited

Molecule: CN(C)C(=O)CCSC(SCCC(=O)O)c1cccc(/C=C/c2ccc3ccc(Cl)cc3n2)c1 (centres unmarked) [MK571, reference compound]
- Effect on polarized transport of uric acid across Caco-2 cell monolayer (Caco-2 cells): significantly reduced

Molecule: COc1cc2c(cc1OC)CN(CCc1ccc(NC(=O)c3cccc4c(=O)c5cccc(OC)c5[nH]c34)cc1)CC2 [elacridar]
- Intestinal secretory clearance of uric acid, % of that in elacridar-untreated rats (rBcrp [2]; colon): 30%
- Intestinal secretory clearance of uric acid in the presence of elacridar (rBcrp [2]; colon): 0.23±0.04 µL/min/cm loop
- Ileal secretion of uric acid, % of the control (rBcrp [2]; ileum, 0.1 µM elacridar (Fig. 3A)): 53%
- Intestinal secretory clearance of uric acid, % of that in elacridar-untreated rats (rBcrp [2]; ileum): 52%
- Intestinal secretory clearance of uric acid in the presence of elacridar (rBcrp [2]; ileum): 0.82±0.12 µL/min/cm loop
- Intestinal secretory clearance of uric acid, % of that in elacridar-untreated rats (rBcrp [2]; jejunum): 55%
- Intestinal secretory clearance of uric acid in the presence of elacridar (rBcrp [2]; jejunum): 0.27±0.04 µL/min/cm loop
- Effect on polarized transport of uric acid across Caco-2 cell monolayer (Caco-2 cells): significantly reduced
- Inhibition of rBcrp-mediated transport of uric acid (rBcrp [1]): strongly inhibited

Molecule: C[C@]12CC[C@@H]3c4ccc(OS(=O)(=O)O)cc4CC[C@H]3[C@@H]1CCC2=O [estrone-3-sulfate]
- Inhibition of rBcrp-mediated transport of uric acid (rBcrp [1]): strongly inhibited

Molecule: CC(C(=O)O)c1cccc(C(=O)c2ccccc2)c1 (centres unmarked) [ketoprofen]
- Inhibition of rBcrp-mediated transport of uric acid (rBcrp [1]): not affected

Molecule: CCCCc1nc(Cl)c(CO)n1Cc1ccc(-c2ccccc2-c2nn[nH]n2)cc1 [losartan]
- Effect on SUA level ([3]; drugs in clinical use): decrease

Molecule: CO[C@H]1/C=C/O[C@@]2(C)Oc3c(C)c(O)c4c(O)c(c(/C=N/N5CCN(C)CC5)c(O)c4c3C2=O)NC(=O)/C(C)=C\C=C\[C@H](C)[C@H](O)[C@@H](C)[C@@H](O)[C@@H](C)[C@H](OC(C)=O)[C@@H]1C [rifampicin]
- Inhibition of rBcrp-mediated transport of uric acid (rBcrp [1]): moderately

Molecule: O=C(O)c1ccccc1O [salicylic acid]
- Effect on SUA level ([3]; high dose): decrease
- Effect on SUA level ([3]; low dose): increase
- Inhibition of rBcrp-mediated transport of uric acid (rBcrp [1]): not affected

B1: rBcrp (Rattus norvegicus) (protein)
chain: MSSSNDHVLVPMSQRNKNGLPGMSSRGARTLAEGDVLSFHHITYRVKVKSGFLVRKTAEKEILSDINGIMKPGLNAILGPTGGGKSSLLDVLAARKDPRGLSGDVLINGAPQPANFKCSSGYVVQDDVVMGTLTVRENLQFSAALRLPKAMKTHEKNERINTIIKELGLDKVADSKVGTQFTRGISGGERKRTSIGMELITDPSILFLDEPTTGLDSSTANAVLLLLKRMSKQGRTIIFSIHQPRYSIFKLFDSLTLLASGKLMFHGPAQKALEYFASAGYHCEPYNNPADFFLDVINGDSSAVMLNRGEQDHEANKTEEPSKREKPIIENLAEFYINSTIYGETKAELDQLPVAQKKKGSSAFREPVYVTSFCHQLRWIARRSFKNLLGNPQASVAQLIVTVILGLIIGALYFGLKNDPTGMQNRAGVFFFLTTNQCFTSVSAVELFVVEKKLFIHEYISGYYRVSSYFFGKLVSDLLPMRFLPSVIYTCILYFMLGLKRTVEAFFIMMFTLIMVAYTASSMALAIAAGQSVVSVATLLMTISFVFMMLFSGLLVNLRTIGPWLSWLQYFSIPRYGFTALQHNEFLGQEFCPGLNVTMNSTCVNSYTICTGNDYLINQGIDLSPWGLWRNHVALACMIIIFLTIAYLKLLFLKKYS
notes: purchased GenoMembrane Inc. (Yokohama, Japan); host or cells: Sf9 cells
- Km [4]: 12.5 ± 0.77 mM
